The results in this text go back to patent publication US10112935B2, “Indazolyl thiadiazolamines and related compounds for inhibition of Rho-associated protein kinase and the treatment of disease” (Lycera Corporation, priority 2015, dated 2018).

Test [1] concerns the target GST-tagged human ROCK1 catalytic domain 1-477 (Homo sapiens (Human), UniProt Q13464). Description: Inhibition of Rho-associated protein kinase isoform 1 (LANCE Ultra ULight-CREBtide FRET kinase assay). The test is classed as biochemical. To be noted: 30 μM was the highest concentration analyzed. The protocol: (§1) Exemplary compounds were tested for ability to inhibit Rho-associated protein kinase isoform 1 (ROCK1) and Rho-associated protein kinase isoform 2 (ROCK2). Assay procedures and results are described below.
(§2) Protein constructs were purified from a baculovirus expression system. The peptide substrate was fluorescent LANCE® Ultra ULight-CREBtide: […] (PerkinElmer, # TRF0107-D). […] After a 90 minute incubation at room temperature on a shaker table, the kinase reaction was stopped by addition of 10 mM EDTA, and phosphorylation of the substrate was detected by adding 1 nM LANCE® Ultra Europium-anti-phospho-CREB (ser133) antibody (PerkinElmer, # TRF0200-D) and incubating for 60 minutes on a shaker at room temperature. The flurorescence resonance energy transfer (FRET) signals were read and analyzed on an Envision™ 2103 Multilabel Reader (Perkin Elmer).
On the technique in general: Time-resolved FRET reads energy transfer from a long-lived donor to a nearby acceptor.

In test [2] the target is GST-tagged human ROCK2 catalytic domain 1-553 (Homo sapiens (Human), UniProt O75116). Description: Inhibition of Rho-associated protein kinase isoform 2 (LANCE Ultra ULight-CREBtide FRET kinase assay). Type of test: biochemical. To be noted: for IC50: 30 μM was the highest concentration analyzed; for Selectivity for ROCK2 over ROCK1 (IC50 ROCK1 / IC50 ROCK2): selectivity ROCK2 vs ROCK1. The protocol:
as §1, §2

Sequence of GST-tagged human ROCK2 catalytic domain 1-553 (O75116 1-553): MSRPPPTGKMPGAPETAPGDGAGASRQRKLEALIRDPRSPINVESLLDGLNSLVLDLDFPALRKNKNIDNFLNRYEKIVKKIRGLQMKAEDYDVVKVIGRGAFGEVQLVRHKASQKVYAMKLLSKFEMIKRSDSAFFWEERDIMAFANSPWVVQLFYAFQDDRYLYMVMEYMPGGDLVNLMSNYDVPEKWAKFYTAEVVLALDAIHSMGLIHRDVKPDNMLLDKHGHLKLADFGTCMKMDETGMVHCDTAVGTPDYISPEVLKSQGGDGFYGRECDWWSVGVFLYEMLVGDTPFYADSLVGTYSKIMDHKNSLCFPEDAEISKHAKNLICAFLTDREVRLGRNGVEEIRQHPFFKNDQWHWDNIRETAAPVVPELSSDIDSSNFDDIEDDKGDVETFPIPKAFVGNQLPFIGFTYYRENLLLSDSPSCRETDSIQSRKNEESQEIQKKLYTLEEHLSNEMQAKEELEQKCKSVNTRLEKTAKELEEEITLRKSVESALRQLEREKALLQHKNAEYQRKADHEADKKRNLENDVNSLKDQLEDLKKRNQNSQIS
Sequence of GST-tagged human ROCK1 catalytic domain 1-477 (Q13464 1-477): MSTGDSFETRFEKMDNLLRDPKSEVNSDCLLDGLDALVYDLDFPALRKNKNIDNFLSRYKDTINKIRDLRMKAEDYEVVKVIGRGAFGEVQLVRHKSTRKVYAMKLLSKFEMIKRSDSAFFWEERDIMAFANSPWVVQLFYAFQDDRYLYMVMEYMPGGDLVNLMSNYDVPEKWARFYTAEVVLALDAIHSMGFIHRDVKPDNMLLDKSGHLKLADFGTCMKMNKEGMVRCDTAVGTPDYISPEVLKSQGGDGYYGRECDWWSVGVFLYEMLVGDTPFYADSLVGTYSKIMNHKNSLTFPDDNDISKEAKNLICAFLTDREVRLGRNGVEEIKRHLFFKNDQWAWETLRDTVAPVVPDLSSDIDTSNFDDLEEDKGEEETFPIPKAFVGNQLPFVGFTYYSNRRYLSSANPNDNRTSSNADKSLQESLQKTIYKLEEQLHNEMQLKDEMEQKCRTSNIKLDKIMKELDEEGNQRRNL

By IC50 is commonly meant the concentration at which inhibition is half-maximal. Read a low IC50 as greater potency in that assay. As to `CC(=O)Nc1cccc(-c2nnc(Nc3ccc4[nH]ncc4c3Cl)s2)c1` [Example 35Y], the IC50 in test [1] was below 1 µM. Besides, in test [2], the IC50 was below 1 µM and the “Selectivity for ROCK2 over ROCK1 (IC50 ROCK1 / IC50 ROCK2)” value (“Selectivity … (IC50 ROCK1 / IC50 ROCK2)” below) was above 5.
Take `N#Cc1cccc(-c2nnc(Nc3ccc4[nH]ncc4c3Cl)s2)c1` [Example 35Z]: the IC50 in test [1] is above 30 µM. Also, in test [2], the IC50 is below 1 µM and the “Selectivity … (IC50 ROCK1 / IC50 ROCK2)” value is reported as above 100.
The like results for `Cn1cc(CC(=O)Nc2cc(-c3nnc(Nc4ccc5[nH]ncc5c4Cl)s3)ccn2)cn1` [Example 36, N-(4-(5-((4-Chloro-1H-indazol-5-yl)amino)-1,3,4-thiadiazol-2-yl)pyridin-2-yl)-2-(1-methyl-1H-pyrazol-4-yl)acetamide] were, in that order, below 1 µM, below 1 µM and above 5.
For `Clc1c(Nc2nnc(-c3cccc(-c4nccn4C4COC4)c3)s2)ccc2[nH]ncc12` [Example 37, N-(4-Chloro-1H-indazol-5-yl)-5-(3-(1-(oxetan-3-yl)-1H-imidazol-2-yl)phenyl)-1,3,4-thiadiazol-2-amine], in that order: above 30 µM, below 1 µM and above 100.
For `CN1CCN(c2cc(-c3nnc(Nc4ccc5[nH]ncc5c4Cl)s3)ccn2)C1=O` [Example 38, 1-(4-(5-((4-Chloro-1H-indazol-5-yl)amino)-1,3,4-thiadiazol-2-yl)pyridin-2-yl)-3-methylimidazolidin-2-one], in that order: below 1 µM, below 1 µM and above 5.
`c1csc(-c2cncc(-c3nnc(Nc4ccc5[nH]ncc5c4)s3)c2)c1` [Example 39D] yielded an IC50 in test [1] of 1 to 15 µM. Also, in test [2], the half-maximal inhibitory concentration (IC50) was below 1 µM and the “Selectivity … (IC50 ROCK1 / IC50 ROCK2)” value is above 5.
The like results for `Cc1coc(-c2cc(-c3nnc(Nc4ccc5[nH]ncc5c4Cl)s3)ccn2)n1` [Example 40, N-(4-Chloro-1H-indazol-5-yl)-5-(2-(4-methyloxazol-2-yl)pyridin-4-yl)-1,3,4-thiadiazol-2-amine] were, in that order, below 1 µM, below 1 µM and above 5.
`O=C(O)C(F)(F)F.OCc1cc(-c2ncco2)cc(-c2nnc(Nc3ccc4[nH]ncc4c3Cl)s2)c1` [Example 41C] gave an IC50 in test [1] below 1 µM. In test [2], the IC50 is below 1 µM and the “Selectivity … (IC50 ROCK1 / IC50 ROCK2)” value was above 5.
Take `Clc1c(Nc2nnc(-c3cccc(-c4nnn[nH]4)c3)s2)ccc2[nH]ncc12` [Example 41D]: in test [1], the half-inhibitory concentration (IC50) was below 1 µM. In test [2], the IC50 is below 1 µM and the “Selectivity … (IC50 ROCK1 / IC50 ROCK2)” value is above 50.
As for `CN1CCN(c2cccc(-c3nnc(Nc4ccc5[nH]ncc5c4Cl)s3)c2)C(=O)C1` [Example 42, 1-(3-(5-((4-Chloro-1H-indazol-5-yl)amino)-1,3,4-thiadiazol-2-yl)phenyl)-4-methylpiperazin-2-one], the IC50 in test [1] and in test [2] was 1 to 15 µM in each case. Also, the “Selectivity … (IC50 ROCK1 / IC50 ROCK2)” value in test [2] is above 5.
Regarding `CN1C(=O)Cc2c(-c3nnc(Nc4ccc5[nH]ncc5c4Cl)s3)cccc21.O=C(O)C(F)(F)F` [Example 43, 4-(5-((4-Chloro-1H-indazol-5-yl)amino)-1,3,4-thiadiazol-2-yl)-1-methylindolin-2-one 2,2,2-trifluoroacetic Acid Solvate], the IC50 in test [1] fell in the range of 1 to 15 µM. Besides, in test [2], the IC50 is below 1 µM and the “Selectivity … (IC50 ROCK1 / IC50 ROCK2)” value is reported as above 5.
On to `COCCn1ccnc1-c1cccc(-c2nnc(Nc3ccc4[nH]ncc4c3Cl)s2)c1.O=C(O)C(F)(F)F` [Example 44, N-(4-Chloro-1H-indazol-5-yl)-5-(3-(1-(2-methoxyethyl)-1H-imidazol-2-yl)phenyl)-1,3,4-thiadiazol-2-amine 2,2,2-trifluoroacetic Acid Solvate], for which the IC50 in test [1] was below 1 µM. In test [2], the half-inhibitory concentration (IC50) is below 1 µM and the “Selectivity … (IC50 ROCK1 / IC50 ROCK2)” value is above 5.
`O=C(O)C(F)(F)F.OCCn1ccnc1-c1cccc(-c2nnc(Nc3ccc4[nH]ncc4c3Cl)s2)c1` [Example 45A, 2-(2-(3-(5-((4-Chloro-1H-indazol-5-yl)amino)-1,3,4-thiadiazol-2-yl)phenyl)-1H-imidazol-1-yl)ethan-1-ol 2,2,2-trifluoroacetic Acid Solvate] came in with an IC50 in test [1] of 1 to 15 µM. Moreover, in test [2], the IC50 is below 1 µM and the “Selectivity … (IC50 ROCK1 / IC50 ROCK2)” value is reported as above 75.
The like results for `CC(C)n1ccnc1-c1cccc(-c2nnc(Nc3ccc4[nH]ncc4c3Cl)s2)c1.O=C(O)C(F)(F)F` [Example 46A] were, in that order, below 1 µM, below 1 µM and above 5.
The like results for `O=C(O)C(F)(F)F.Oc1cccc(-c2cccc(-c3nnc(Nc4ccc5[nH]ncc5c4Cl)s3)c2)n1` [Example 46B] were, in that order, above 30 µM, below 1 µM and above 100.
For `Cc1coc(-c2cccc(-c3nnc(Nc4ccc5[nH]ncc5c4Cl)s3)c2)n1` [Example 46C], in that order: below 1 µM, below 1 µM and above 5.
On to `Cc1coc(-c2cc(F)cc(-c3nnc(Nc4ccc5[nH]ncc5c4Cl)s3)c2)n1` [Example 46D], for which the concentration for half-maximal inhibition (IC50) in test [1] is above 30 µM; in test [2], below 1 µM. The “Selectivity … (IC50 ROCK1 / IC50 ROCK2)” value in test [2] is recorded as above 100.
The like results for `Cn1ccnc1-c1cccc(-c2nnc(Nc3ccc4[nH]ncc4c3Cl)s2)c1.O=C(O)C(F)(F)F` [Example 46E] were, in that order, above 30 µM, below 1 µM and above 100.
The like results for `CC1(C)COC(c2cccc(-c3nnc(Nc4ccc5[nH]ncc5c4Cl)s3)c2)=N1` [Example 46F] were, in that order, 1 to 15 µM, below 1 µM and above 5.
Regarding `COc1cccc(-c2cccc(-c3nnc(Nc4ccc5[nH]ncc5c4Cl)s3)c2)n1` [Example 46H], the figures for the IC50 in test [1] and in test [2] were above 30 µM and below 1 µM, respectively. Further, the “Selectivity … (IC50 ROCK1 / IC50 ROCK2)” value in test [2] is reported as above 100.
Take `Clc1c(Nc2nnc(-c3cccc(-c4nccs4)c3)s2)ccc2[nH]ncc12` [Example 46I]: in test [1], the IC50 is above 30 µM. Further, in test [2], the IC50 was below 1 µM and the “Selectivity … (IC50 ROCK1 / IC50 ROCK2)” value is above 100.
The like results for `Fc1cc(-c2ncco2)cc(-c2nnc(Nc3ccc4[nH]ncc4c3Cl)s2)c1` [Example 46J] were, in that order, above 30 µM, below 1 µM and above 100.
The molecule `NC(=O)c1cc(-c2ncco2)cc(-c2nnc(Nc3ccc4[nH]ncc4c3Cl)s2)c1` [Example 46L] returned an IC50 in test [1] above 30 µM. Moreover, in test [2], the IC50 was below 1 µM and the “Selectivity … (IC50 ROCK1 / IC50 ROCK2)” value is above 100.
For `CC(=O)Nc1cc(-c2ncco2)cc(-c2nnc(Nc3ccc4[nH]ncc4c3Cl)s2)c1.O=C(O)C(F)(F)F` [Example 46M], in that order: above 30 µM, below 1 µM and above 100.
As to `O=C(O)C(F)(F)F.O=C(O)c1cc(-c2ncco2)cc(-c2nnc(Nc3ccc4[nH]ncc4c3Cl)s2)c1` [Example 46N], the half-maximal inhibitory concentration (IC50) in test [1] and in test [2] was below 1 µM each time. Besides, the “Selectivity … (IC50 ROCK1 / IC50 ROCK2)” value in test [2] is above 5.
`Clc1c(Nc2nnc(-c3cccc(-c4ncco4)c3)s2)ccc2[nH]ncc12` [Example 46O] registered an IC50 in test [1] above 30 µM. Also, in test [2], the IC50 was below 1 µM and the “Selectivity … (IC50 ROCK1 / IC50 ROCK2)” value was above 100.
Consider `Clc1c(Nc2nnc(-c3cncc(-c4ncco4)c3)s2)ccc2[nH]ncc12` [Example 46P], for which the IC50 in test [1] was above 30 µM. In test [2], the IC50 was below 1 µM and the “Selectivity … (IC50 ROCK1 / IC50 ROCK2)” value is above 100.
The like results for `CC(=O)Nc1cc(CSC(C)=O)cc(-c2nnc(Nc3ccc4[nH]ncc4c3Cl)s2)c1` [Example 47, (S)-(3-Acetamido-5-(5-((4-chloro-1H-indazol-5-yl)amino)-1,3,4-thiadiazol-2-yl)benzyl)ethanethioate] were, in that order, above 30 µM, below 1 µM and above 100.
`Cn1cc(C(=O)Nc2cc(C(=O)O)cc(-c3nnc(Nc4ccc5[nH]ncc5c4Cl)s3)c2)cn1` [Example 48AC] gave a half-inhibitory concentration (IC50) in test [1] below 1 µM. In test [2], the IC50 is below 1 µM and the “Selectivity … (IC50 ROCK1 / IC50 ROCK2)” value was above 5.
With `CC(=O)Nc1cc(C(=O)O)cc(-c2nnc(Nc3ccc4[nH]ncc4c3)s2)c1` [Example 48AE], the IC50 in test [1] and in test [2] was below 1 µM throughout.
In test [1], `CCN(CC)Cc1cc(NC(C)=O)cc(-c2nnc(Nc3ccc4[nH]ncc4c3Cl)s2)c1.O=C(O)C(F)(F)F` [Example 48A] yielded an IC50 of 1 to 15 µM. Also, in test [2], the IC50 is below 1 µM and the “Selectivity … (IC50 ROCK1 / IC50 ROCK2)” value was above 5.
In turn, `CC(=O)Nc1cc(CN2CCN(C)CC2)cc(-c2nnc(Nc3ccc4[nH]ncc4c3Cl)s2)c1.O=C(O)C(F)(F)F` [Example 48B] came in with an IC50 in test [1] of 1 to 15 µM. In test [2], the IC50 is below 1 µM and the “Selectivity … (IC50 ROCK1 / IC50 ROCK2)” value was above 50.
